PubChem BioAssay AID248 (DTP/NCI, 2004)
Where “and” joins values, the source holds several entries; their conditions need not be identical. Identical values can stand only once. Inconclusive results and toxic doses are left out. Cut-off read from the data, not from the text of the source: active = T/C of 150% or more; inactive = T/C below 125%. Peptide text beside a SMILES is read from it. * marks the point of attachment. Cbz = O=C(OCc1ccccc1)*

System: L1210 leukemia ip in BDF1 mice, survival T/C
Assay: NCI In Vivo Anticancer Drug Screen. Data for tumor model L1210 Leukemia (intraperitoneal) in B6D2F1 (BDF1) mice
Conditions: endpoint: mean survival time, higher = longer survival
Method in brief: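 Each compound was tested against a transplantable tumor grown in mice. The endpoint was survival, with treated animals benchmarked against vehicle controls as a simple ratio.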

[1] = dose: 100.0 mg/kg/injection, schedule: Q01DX009 (ip), vehicle: Klucel (hydroxypropylcellulose) (HPC)
[2] = dose: 200.0 mg/kg/injection, schedule: Q01DX009 (ip), vehicle: Klucel (hydroxypropylcellulose) (HPC)
[3] = dose: 400.0 mg/kg/injection, schedule: Q01DX009 (ip), vehicle: Klucel (hydroxypropylcellulose) (HPC)
[4] = dose: 100.0 mg/kg/injection, schedule: Q01DX009 (ip), vehicle: saline with Tween-80
[5] = dose: 200.0 mg/kg/injection, schedule: Q01DX009 (ip), vehicle: saline with Tween-80
[6] = dose: 400.0 mg/kg/injection, schedule: Q01DX009 (ip), vehicle: saline with Tween-80
[7] = dose: 100.0 mg/kg/injection, schedule: Q04DX003 (ip), vehicle: Klucel (hydroxypropylcellulose) (HPC)
[8] = dose: 200.0 mg/kg/injection, schedule: Q04DX003 (ip), vehicle: Klucel (hydroxypropylcellulose) (HPC)
[9] = dose: 12.5 mg/kg/injection, schedule: Q01DX009 (ip), vehicle: Klucel (hydroxypropylcellulose) (HPC)
[10] = dose: 25.0 mg/kg/injection, schedule: Q01DX009 (ip), vehicle: Klucel (hydroxypropylcellulose) (HPC)
[11] = dose: 50.0 mg/kg/injection, schedule: Q01DX009 (ip), vehicle: Klucel (hydroxypropylcellulose) (HPC)
[12] = dose: 400.0 mg/kg/injection, schedule: Q04DX003 (ip), vehicle: Klucel (hydroxypropylcellulose) (HPC)
[13] = dose: 200.0 mg/kg/injection, schedule: Q01DX001 (ip), vehicle: saline
[14] = dose: 50.0 mg/kg/injection, schedule: Q01DX001 (ip), vehicle: saline
[15] = dose: 100.0 mg/kg/injection, schedule: Q01DX001 (ip), vehicle: saline
[16] = dose: 100.0 mg/kg/injection, schedule: Q04DX003 (ip), vehicle: saline
[17] = dose: 200.0 mg/kg/injection, schedule: Q04DX003 (ip), vehicle: saline
[18] = dose: 400.0 mg/kg/injection, schedule: Q04DX003 (ip), vehicle: saline

Measured: T/C

COc1ccc(Cl)cc1NC(=O)Oc1ccc(F)cc1
inactive: [1] 87 % of control | [2] 97 % of control | [3] 87 % of control

CCCCCCC(O)CCCCCCCCCCC(=O)O (stereo not drawn)
inactive: [4] 106 % of control | [5] 93 % of control | [6] 88 % of control

O=C(N/N=C/c1ccccc1O)N/N=C/c1ccccc1O
inactive: dose: 50.0 mg/kg/injection, schedule: Q04DX003 (ip), vehicle: Klucel (hydroxypropylcellulose) (HPC) 96 % of control | [7] 90 % of control | [8] 88 % of control

COc1ccc(NC(=O)Nc2cc(Cl)ccc2OC)cc1
inactive: [9] 90 % of control | [10] 93 % of control | [11] 93 % of control | [7] 99 % of control | [8] 92 % of control | [12] 90 % of control

COc1ccc(-n2cnc3c(=O)[nH]c(N)nc32)cc1
inactive: [13] 92 % of control

Cc1nnn2ccccc12
inactive: dose: 25.0 mg/kg/injection, schedule: Q01DX001 (ip), vehicle: saline 96 % of control | [14] 100 % of control | [15] 100 % of control

CC(=O)Nc1ccc(S(=O)(=O)F)cc1C
inactive: [1] 98 % of control | [2] 95 % of control

NC(N)=N/N=C(/c1ccccc1)c1ccccc1F
inactive: dose: 15.0 mg/kg/injection, schedule: Q01DX Z (ip), vehicle: saline 111 % of control | dose: 30.0 mg/kg/injection, schedule: Q01DX Z (ip), vehicle: saline 100 % of control | dose: 60.0 mg/kg/injection, schedule: Q01DX Z (ip), vehicle: saline 108 % of control | dose: 120.0 mg/kg/injection, schedule: Q01DX Z (ip), vehicle: saline 103 % of control | dose: 120.0 mg/kg/injection, schedule: Q01DX Z (oral), vehicle: saline 105 % of control | dose: 240.0 mg/kg/injection, schedule: Q01DX Z (ip), vehicle: saline 95 % of control | dose: 240.0 mg/kg/injection, schedule: Q01DX Z (oral), vehicle: saline 105 % of control | dose: 480.0 mg/kg/injection, schedule: Q01DX Z (ip), vehicle: saline 96 % of control | dose: 480.0 mg/kg/injection, schedule: Q01DX Z (oral), vehicle: saline 105 % of control

c1ccc(CNNC2=NCCN2)cc1
inactive: dose: 15.0 mg/kg/injection, schedule: Q01DX009 (ip), vehicle: saline 103 % of control | dose: 31.0 mg/kg/injection, schedule: Q01DX009 (ip), vehicle: saline 102 % of control | [14] 103 % of control | dose: 62.5 mg/kg/injection, schedule: Q01DX009 (ip), vehicle: saline 92 % of control | [15] 114 % of control

CN(C)S(=O)(=O)c1ccc(Nc2ccc(O)c3c2C(=O)c2c([N+](=O)[O-])ccc(O)c2C3=O)cc1
inactive: dose: 75.0 mg/kg/injection, schedule: Q01DX001 (ip), vehicle: steriod suspending solution 98 % of control | dose: 150.0 mg/kg/injection, schedule: Q01DX001 (ip), vehicle: steriod suspending solution 98 % of control | dose: 300.0 mg/kg/injection, schedule: Q01DX001 (ip), vehicle: steriod suspending solution 100 % of control

NC(N)=N/N=C(/c1ccccc1)c1ccc2ccccc2c1
inactive: dose: 60.0 mg/kg/injection, schedule: Q01DX Z (oral), vehicle: methylcellulose (MC) 95 % of control | dose: 120.0 mg/kg/injection, schedule: Q01DX Z (oral), vehicle: methylcellulose (MC) 108 % of control | dose: 240.0 mg/kg/injection, schedule: Q01DX Z (oral), vehicle: methylcellulose (MC) 111 % of control | dose: 480.0 mg/kg/injection, schedule: Q01DX Z (oral), vehicle: methylcellulose (MC) 101 % of control | dose: 720.0 mg/kg/injection, schedule: Q01DX Z (oral), vehicle: methylcellulose (MC) 98 % of control | dose: 840.0 mg/kg/injection, schedule: Q01DX Z (oral), vehicle: methylcellulose (MC) 112 % of control

COc1ccc(C(=O)NC(=O)Nc2ccccc2)cc1
inactive: dose: 15.0 mg/kg/injection, schedule: Q01DX001 (ip), vehicle: saline 97 % of control | dose: 30.0 mg/kg/injection, schedule: Q01DX001 (ip), vehicle: saline 91 % of control | dose: 60.0 mg/kg/injection, schedule: Q01DX001 (ip), vehicle: saline 92 % of control

COC(=O)c1ccc(OC(=O)Nc2ccc(F)c([N+](=O)[O-])c2)cc1
inactive: [1] 101 % of control | [2] 104 % of control

CCCCC(=O)N(C(C)C)C(C)C
inactive: dose: 50.0 mg/kg/injection, schedule: Q01DX009 (ip), vehicle: carboxymethylcellulose (CMC) 94 % of control and 103 % of control | dose: 100.0 mg/kg/injection, schedule: Q01DX009 (ip), vehicle: carboxymethylcellulose (CMC) 97 % of control and 102 % of control | dose: 100.0 mg/kg/injection, schedule: Q04DX002 (ip), vehicle: carboxymethylcellulose (CMC) 95 % of control and 98 % of control | dose: 200.0 mg/kg/injection, schedule: Q04DX002 (ip), vehicle: carboxymethylcellulose (CMC) 95 % of control

COc1ccc2c(c1O)[C@]13CCN(C)[C@H](C2)[C@@H]1CCC(=O)C3
inactive: dose: 75.0 mg/kg/injection, schedule: Q01DX001 (ip), vehicle: saline 101 % of control | dose: 150.0 mg/kg/injection, schedule: Q01DX001 (ip), vehicle: saline 106 % of control

CCCCCCCCCCC/C=N\[N+](C)(C)C
inactive: [9] 108 % of control | [10] 95 % of control

O=C1C=C(Nc2ccc(N(CCCl)CCCl)cc2)c2ccccc2C1=O
inactive: [7] 107 % of control | [8] 114 % of control | [12] 95 % of control

Cn1c(Cl)c(/C=N/NC(N)=S)c2ccccc21
inactive: dose: 50.0 mg/kg/injection, schedule: Q04DX002 (ip), vehicle: Klucel (hydroxypropylcellulose) (HPC) 91 % of control | dose: 100.0 mg/kg/injection, schedule: Q04DX002 (ip), vehicle: Klucel (hydroxypropylcellulose) (HPC) 91 % of control | dose: 200.0 mg/kg/injection, schedule: Q04DX002 (ip), vehicle: Klucel (hydroxypropylcellulose) (HPC) 87 % of control

COC(=O)CNC(=O)CNC(=O)OCc1ccccc1 (Cbz-Gly-Gly-OMe)
inactive: dose: 100.0 mg/kg/injection, schedule: Q01DX009 (ip), vehicle: saline 102 % of control | [16] 102 % of control | dose: 200.0 mg/kg/injection, schedule: Q01DX009 (ip), vehicle: saline 100 % of control | [17] 98 % of control | dose: 400.0 mg/kg/injection, schedule: Q01DX009 (ip), vehicle: saline 102 % of control | [18] 107 % of control

COC(=O)c1ccccc1NC(=O)Nc1cc(Cl)ccc1C
inactive: dose: 100.0 mg/kg/injection, schedule: Q01DX001 (ip), vehicle: saline with Tween-80 87 % of control | [4] 91 % of control and 92 % of control | dose: 100.0 mg/kg/injection, schedule: Q04DX002 (ip), vehicle: saline with Tween-80 95 % of control and 88 % of control | dose: 100.0 mg/kg/injection, schedule: Q04DX003 (ip), vehicle: saline with Tween-80 101 % of control | dose: 200.0 mg/kg/injection, schedule: Q01DX001 (ip), vehicle: saline with Tween-80 90 % of control | [5] 93 % of control and 94 % of control | dose: 200.0 mg/kg/injection, schedule: Q04DX002 (ip), vehicle: saline with Tween-80 88 % of control and 91 % of control | dose: 200.0 mg/kg/injection, schedule: Q04DX003 (ip), vehicle: saline with Tween-80 92 % of control | dose: 400.0 mg/kg/injection, schedule: Q01DX001 (ip), vehicle: saline with Tween-80 88 % of control | [6] 94 % of control and 101 % of control | dose: 400.0 mg/kg/injection, schedule: Q04DX002 (ip), vehicle: saline with Tween-80 93 % of control and 91 % of control | dose: 400.0 mg/kg/injection, schedule: Q04DX003 (ip), vehicle: saline with Tween-80 90 % of control

CC(=O)c1cccc(N)c1
inactive: [1] 94 % of control | [16] 95 % of control | [2] 93 % of control | [17] 95 % of control | [3] 93 % of control | [18] 88 % of control

CC12CC(C3(O)C(=O)Nc4ccccc43)C(=O)CC1CCC1C2CCC2(C)C(OC(=O)c3ccccc3)CCC12 (stereo not drawn)
inactive: [11] 93 % of control | [1] 101 % of control | [2] 101 % of control

CC(C)(C)C(Br)C(=O)Nc1ccccc1 (stereo not drawn)
inactive: [15] 104 % of control | [13] 102 % of control | dose: 400.0 mg/kg/injection, schedule: Q01DX001 (ip), vehicle: saline 102 % of control
